Entries after “also recorded” stand apart in the source; their conditions may differ. Where two headings read alike, the source gives them in different places.
Key:
[1] = cited from earlier work
[2] = At a higher pH than 9.0; cited from earlier work
[3] = words, background; cited from earlier work
[4] = Solubility of Piroxicam with solubilizers; assay type: physicochemical
Text: This invention employs a solubilizing agent to dissolve piroxicam in bases for formulation; the piroxicam-solubilizing agent is selected from the class of alkanolamines. […] The monoalkanolamines have from one to four carbon atoms and include methanolamine, ethanolamine, propanolamine and butanolamine. The dialkanolamines have from two to eight carbon atoms and include dimethanolamine, diethanolamine, dipropanolamine and dibutanolamine. The trialkanolamines have from three to twelve carbon atoms and include trimethanolamine, triethanolamine, tripropanolamine and tributanolamine.

[5] = tested on: carragenin-induced foot edema; assay: Carragenin-induced rat foot edema test; assay type: in vivo; details: oral administration, 1 mg./kg.
Protocol: The anti-inflammatory activity of the compositions of this invention was determined using the standard carragenin-induced rat foot edema test. [C. A. Winter et al., Proceedings of the Society for Experimental Biology and Medicine, Vol. 111, p. 544 (1962)]. Piroxicam ointment (1%), prepared according to Example 10, was administered topically at a dose level of 100 mg. per rat. The results obtained are presented in the table below (Table 6) in terms of the percent inhibition of edema formation, as compared to the non-drug treated control and the oral administration of piroxicam (1 mg./kg.): […]

| Structure (SMILES) | Absorption through skin ([1]; compounded in suspension with conventional bases for ointment or cream) | Absorption through skin ([1]; tincture, dissolved in an alcoholic solvent such as ethanol) | Chemical stability [2] | Liposolubility [3] | Solubility in water [3] | Solubility of Piroxicam ([4]; Ammonia 10%, solvent: water) | Solubility of Piroxicam ([4]; Control (none), no solubilizer, solvent: water) | Solubility of Piroxicam ([4]; Di-isopropanolamine 10%, solvent: water) | Solubility of Piroxicam ([4]; Di-isopropyl adipate 10%, solvent: 1:1 water-ethanol) | Solubility of Piroxicam ([4]; Diethanolamine 10%, solvent: water) | Solubility of Piroxicam ([4]; Diethyl sebacate 10%, solvent: 1:1 water-ethanol) | Solubility of Piroxicam ([4]; Ethanolamine 10%, solvent: water) | Solubility of Piroxicam ([4]; Isopropyl myristate 10%, solvent: 1:1 water-ethanol) | Solubility of Piroxicam ([4]; N-Ethyl-o-crotonotoluidide 10%, solvent: 1:1 water-ethanol) | % Inhibition of edema [5] | Solubility relative to piroxicam [3] |
| --- | --- | --- | --- | --- | --- | --- | --- | --- | --- | --- | --- | --- | --- | --- | --- | --- |
| CN1C(C(=O)Nc2ccccn2)=C(O)c2ccccc2S1(=O)=O [Piroxicam, N-(2-pyridyl)-2-methyl-4-hydroxy-2H-1,2-benzothiazine-3-carboxamide 1,1-dioxide] | poorly absorbed through skin | will not be absorbed through the skin | chemically unstable and may even decompose or deteriorate in quality | not liposoluble | sparingly soluble in water; also recorded: sparingly soluble in water or any other solvent | 60.0 mg/g | 0.01 mg/g | 195 mg/g | 1.2 mg/g | 204 mg/g | 2.0 mg/g | 392 mg/g | 0.4 mg/g | 1.8 mg/g | 39.6% | – |
| CN1C(C(=O)Nc2ccccn2)=C(O)c2ccccc2S1(=O)=O [hydrate] | – | – | – | – | – | – | – | – | – | – | – | – | – | – | – | less soluble than piroxicam itself |

Source: patent US4678666A, “Topical anti-inflammatory compositions” (Pfizer Inc., priority 1982, dated 1987)
